This experiment addresses T1, GLP-1R (Homo sapiens, UniProt P43220).
T1 construct: host or cells: CHO cells
Description: GLP-1R activation cAMP assay (Assay 1 or Assay 2). It counts as cell-based. The conditions noted are these: cAMP increase in CHO cells stably expressing GLP-1R; compounds run on one of the two cAMP assays. The essentials:
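CHO cells stably expressing human GLP-1R were incubated 1 h in HBSS/20 mM HEPES/0.1% BSA, then exposed to 10-point agonist dilutions for 30 min at 37 °C. cAMP increase was measured with an HTRF Gs dynamic kit; EC50 from sigmoidal fit of response versus log concentration.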
For orientation: Cyclic AMP is a second messenger, typically raised through Gs and lowered through Gi signalling.

T1 sequence (P43220 24-463): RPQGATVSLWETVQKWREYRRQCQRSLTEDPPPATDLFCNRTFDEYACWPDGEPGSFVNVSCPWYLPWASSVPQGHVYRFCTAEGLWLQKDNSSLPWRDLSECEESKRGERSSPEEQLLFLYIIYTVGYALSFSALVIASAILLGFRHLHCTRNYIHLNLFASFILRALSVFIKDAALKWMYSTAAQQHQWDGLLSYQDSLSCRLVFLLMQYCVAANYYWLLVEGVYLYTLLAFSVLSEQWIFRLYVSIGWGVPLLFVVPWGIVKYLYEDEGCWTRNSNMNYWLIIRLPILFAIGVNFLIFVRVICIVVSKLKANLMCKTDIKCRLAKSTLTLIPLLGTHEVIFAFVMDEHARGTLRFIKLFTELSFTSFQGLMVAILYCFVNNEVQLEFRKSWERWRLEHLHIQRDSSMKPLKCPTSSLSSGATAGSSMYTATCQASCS

As usually defined, the EC50 is the concentration that produces a half-maximal response. Turning to `CC(F)(F)c1cnc(COc2nc(-c3cc(F)c(Cc4nc5ccc(C(=O)O)cc5n4[C@@H]4COCC4(C)C)cc3F)ccc2F)s1` [Example 340, (S)-2-(4-(6-((5-(1,1-difluoroethyl)thiazol-2-yl)methoxy)-5-fluoropyridin-2-yl)-2,5-difluorobenzyl)-1-(4,4-dimethyltetrahydrofuran-3-yl)-1H-benzo[d]imidazole-6-carboxylic acid], a half-maximal effect (EC50) was put at 58 pM. In other words, the picomolar range. As for `CC1(C)COCC1n1c(Cc2cc(F)c(-c3cccc(OCc4ncc(C(F)F)s4)n3)cc2F)nc2c(F)cc(C(=O)O)cc21` (centres unmarked) [Example 341, 2-(4-(6-((5-(difluoromethyl)thiazol-2-yl)methoxy)pyridin-2-yl)-2,5-difluorobenzyl)-1-(4,4-dimethyltetrahydrofuran-3-yl)-4-fluoro-1H-benzo[d]imidazole-6-carboxylic acid], the figure is 772 pM; as for `COc1nnc(COc2cccc(-c3cc(F)c(Cc4nc5ccc(C(=O)O)cc5n4[C@@H]4COCC4(C)C)cc3F)n2)s1` [Example 342, (S)-2-(2,5-difluoro-4-(6-((5-methoxy-1,3,4-thiadiazol-2-yl)methoxy)pyridin-2-yl)benzyl)-1-(4,4-dimethyltetrahydrofuran-3-yl)-1H-benzo[d]imidazole-6-carboxylic acid], 39 pM. As for `CC1(COc2nnc(COc3cccc(-c4cc(F)c(Cc5nc6ccc(C(=O)O)cc6n5C[C@@H]5CCO5)cc4F)n3)s2)CC1` [Example 343, (S)-2-(2,5-difluoro-4-(6-((5-((1-methylcyclopropyl)methoxy)-1,3,4-thiadiazol-2-yl)methoxy)pyridin-2-yl)benzyl)-1-(oxetan-2-ylmethyl)-1H-benzo[d]imidazole-6-carboxylic acid], the figure is 459 pM; as for `O=C(O)c1ccc2nc(Cc3cc(F)c(-c4cccc(OCc5nnc(OC6CCC6)s5)n4)cc3F)n(C[C@@H]3CCO3)c2c1` [Example 344, (S)-2-(4-(6-((5-cyclobutoxy-1,3,4-thiadiazol-2-yl)methoxy)pyridin-2-yl)-2,5-difluorobenzyl)-1-(oxetan-2-ylmethyl)-1H-benzo[d]imidazole-6-carboxylic acid], 55 pM.

Compound `COc1nnc(COc2cccc(-c3cc(F)c(Cc4nc5c(F)cc(C(=O)O)cc5n4[C@@H]4COCC4(C)C)cc3F)n2)s1` [Example 345, (S)-2-(2,5-difluoro-4-(6-((5-methoxy-1,3,4-thiadiazol-2-yl)methoxy)pyridin-2-yl)benzyl)-1-(4,4-dimethyltetrahydrofuran-3-yl)-4-fluoro-1H-benzo[d]imidazole-6-carboxylic acid] yielded an EC50 of 27 pM. This EC50 is about 2-fold lower than that of the compound before.

On to `COc1nnc(COc2nc(-c3cc(F)c(Cc4nc5c(F)cc(C(=O)O)cc5n4[C@@H]4COCC4(C)C)cc3F)ccc2F)s1` [Example 346, (S)-2-(2,5-difluoro-4-(5-fluoro-6-((5-methoxy-1,3,4-thiadiazol-2-yl)methoxy)pyridin-2-yl)benzyl)-1-(4,4-dimethyltetrahydrofuran-3-yl)-4-fluoro-1H-benzo[d]imidazole-6-carboxylic acid], for which the response was half-maximal at 27 pM (EC50). That is a picomolar value. The result for `O=C(O)c1ccc2nc(Cc3cc(F)c(-c4cccc(OCc5nnc(OC6CC(C(F)F)C6)s5)n4)cc3F)n(C[C@@H]3CCO3)c2c1` (stereo partly drawn) [Example 347, (S)-2-(4-(6-((5-(3-(difluoromethyl)cyclobutoxy)-1,3,4-thiadiazol-2-yl)methoxy)pyridin-2-yl)-2,5-difluorobenzyl)-1-(oxetan-2-ylmethyl)-1H-benzo[d]imidazole-6-carboxylic acid] reads 271 pM. The result for `CC(=O)N1CC(Oc2nnc(COc3cccc(-c4cc(F)c(Cc5nc6ccc(C(=O)O)cc6n5C[C@@H]5CCO5)cc4F)n3)s2)C1` [Example 348, (S)-2-(4-(6-((5-((1-acetylazetidin-3-yl)oxy)-1,3,4-thiadiazol-2-yl)methoxy)pyridin-2-yl)-2,5-difluorobenzyl)-1-(oxetan-2-ylmethyl)-1H-benzo[d]imidazole-6-carboxylic acid] reads 1870 pM; that for `CCOc1nc(C)c(COc2cccc(-c3cc(F)c(Cc4nc5ccc(C(=O)O)cc5n4C[C@@H]4CCO4)cc3F)n2)s1` [Example 349, (S)-2-(4-(6-((2-ethoxy-4-methylthiazol-5-yl)methoxy)pyridin-2-yl)-2,5-difluorobenzyl)-1-(oxetan-2-ylmethyl)-1H-benzo[d]imidazole-6-carboxylic acid], 323 pM; that for `O=C(O)c1ccc2nc(Cc3cc(F)c(-c4cccc(OCc5nnc(OCC(F)(F)F)s5)n4)cc3F)n(C[C@@H]3CCO3)c2c1` [Example 350, (S)-2-(2,5-difluoro-4-(6-((5-(2,2,2-trifluoroethoxy)-1,3,4-thiadiazol-2-yl)methoxy)pyridin-2-yl)benzyl)-1-(oxetan-2-ylmethyl)-1H-benzo[d]imidazole-6-carboxylic acid], 209 pM. As for `COc1nnc(COc2cccc(-c3cc(F)c(Cc4nc5c(F)cc(C(=O)O)cc5n4C[C@@H]4CCO4)cc3F)n2)s1` [Example 351, (S)-2-(2,5-difluoro-4-(6-((5-methoxy-1,3,4-thiadiazol-2-yl)methoxy)pyridin-2-yl)benzyl)-4-fluoro-1-(oxetan-2-ylmethyl)-1H-benzo[d]imidazole-6-carboxylic acid], the figure is 182 pM; as for `O=C(O)c1ccc2nc(Cc3cc(F)c(-c4cccc(OCc5nnc(OCC(F)F)s5)n4)cc3F)n(C[C@@H]3CCO3)c2c1` [Example 352, (S)-2-(4-(6-((5-(2,2-difluoroethoxy)-1,3,4-thiadiazol-2-yl)methoxy)pyridin-2-yl)-2,5-difluorobenzyl)-1-(oxetan-2-ylmethyl)-1H-benzo[d]imidazole-6-carboxylic acid], 520 pM.

In turn, `CCOc1nc(Cl)c(COc2cccc(-c3cc(F)c(Cc4nc5ccc(C(=O)O)cc5n4C[C@@H]4CCO4)cc3F)n2)s1` [Example 353, (S)-2-(4-(6-((4-chloro-2-ethoxythiazol-5-yl)methoxy)pyridin-2-yl)-2,5-difluorobenzyl)-1-(oxetan-2-ylmethyl)-1H-benzo[d]imidazole-6-carboxylic acid] yielded an EC50 of 188 pM. Against the preceding compound, the EC50 is about 2.8-fold lower.

Turning to `Cc1nc(C)c(COc2cccc(-c3cc(F)c(Cc4nc5ccc(C(=O)O)cc5n4C[C@@H]4CCO4)cc3F)n2)s1` [Example 354, (S)-2-(4-(6-((2,4-dimethylthiazol-5-yl)methoxy)pyridin-2-yl)-2,5-difluorobenzyl)-1-(oxetan-2-ylmethyl)-1H-benzo[d]imidazole-6-carboxylic acid], a half-maximal effect (EC50) was put at 622 pM. This EC50 is about 3.3-fold higher than that of the compound before. In turn, `Cn1cc(-c2ncc(COc3cccc(-c4cc(F)c(Cc5nc6ccc(C(=O)O)cc6n5C[C@@H]5CCO5)cc4F)n3)s2)cn1` [Example 355, (S)-2-(2,5-difluoro-4-(6-((2-(1-methyl-1H-pyrazol-4-yl)thiazol-5-yl)methoxy)pyridin-2-yl)benzyl)-1-(oxetan-2-ylmethyl)-1H-benzo[d]imidazole-6-carboxylic acid] displayed an EC50 of 355 pM. The result for `O=C(O)c1ccc2nc(Cc3cc(F)c(-c4cccc(OCc5ccc(C#Cc6cc[nH]c(=O)c6)cc5F)n4)cc3F)n(C[C@@H]3CCO3)c2c1` [Example 356, (S)-2-(2,5-difluoro-4-(6-((2-fluoro-4-((2-oxo-1,2-dihydropyridin-4-yl)ethynyl)benzyl)oxy)pyridin-2-yl)benzyl)-1-(oxetan-2-ylmethyl)-1H-benzo[d]imidazole-6-carboxylic acid] reads 99 pM.

For `Cn1ccc(C#Cc2ccc(COc3cccc(-c4cc(F)c(Cc5nc6ccc(C(=O)O)cc6n5C[C@@H]5CCO5)cc4F)n3)c(F)c2)cc1=O` [Example 357, (S)-2-(2,5-difluoro-4-(6-((2-fluoro-4-((1-methyl-2-oxo-1,2-dihydropyridin-4-yl)ethynyl)benzyl)oxy)pyridin-2-yl)benzyl)-1-(oxetan-2-ylmethyl)-1H-benzo[d]imidazole-6-carboxylic acid], the concentration for a half-maximal effect (EC50) is 508 pM. `Cn1cc(C#Cc2ccc(COc3cccc(-c4cc(F)c(Cc5nc6ccc(C(=O)O)cc6n5C[C@@H]5CCO5)cc4F)n3)nc2Cl)cn1` [Example 358, (S)-2-(4-(6-((6-chloro-5-((1-methyl-1H-pyrazol-4-yl)ethynyl)pyridin-2-yl)methoxy)pyridin-2-yl)-2,5-difluorobenzyl)-1-(oxetan-2-ylmethyl)-1H-benzo[d]imidazole-6-carboxylic acid] had an EC50 of 243 pM. In the case of `Cn1ncc(C#Cc2ccc(COc3cccc(-c4cc(F)c(Cc5nc6ccc(C(=O)O)cc6n5C[C@@H]5CCO5)cc4F)n3)c(F)c2)c1C(N)=O` [Example 359, (S)-2-(4-(6-((4-((5-carbamoyl-1-methyl-1H-pyrazol-4-yl)ethynyl)-2-fluorobenzyl)oxy)pyridin-2-yl)-2,5-difluorobenzyl)-1-(oxetan-2-ylmethyl)-1H-benzo[d]imidazole-6-carboxylic acid], the concentration giving a half-maximal response (EC50) was found to be 51 pM. The result for `COc1nc(C#Cc2cnn(C)c2)ccc1COc1cccc(-c2cc(F)c(Cc3nc4ccc(C(=O)O)cc4n3C[C@@H]3CCO3)cc2F)n1` [Example 360, (S)-2-(2,5-difluoro-4-(6-((2-methoxy-6-((1-methyl-1H-pyrazol-4-yl)ethynyl)pyridin-3-yl)methoxy)pyridin-2-yl)benzyl)-1-(oxetan-2-ylmethyl)-1H-benzo[d]imidazole-6-carboxylic acid] reads 174 pM. As for `Cn1ncc(C#Cc2ccc(COc3cccc(-c4cc(F)c(Cc5nc6ccc(C(=O)O)cc6n5C[C@@H]5CCO5)cc4F)n3)c(F)c2)c1Cl` [Example 361, (S)-2-(4-(6-((4-((5-chloro-1-methyl-1H-pyrazol-4-yl)ethynyl)-2-fluorobenzyl)oxy)pyridin-2-yl)-2,5-difluorobenzyl)-1-(oxetan-2-ylmethyl)-1H-benzo[d]imidazole-6-carboxylic acid], the figure is 620 pM; as for `Cn1cc(C#Cc2ccc(COc3cccc(-c4cc(F)c(Cc5nc6ccc(C(=O)O)cc6n5C[C@@H]5CCO5)cc4F)n3)c(F)n2)cn1` [Example 362, (S)-2-(2,5-difluoro-4-(6-((2-fluoro-6-((1-methyl-1H-pyrazol-4-yl)ethynyl)pyridin-3-yl)methoxy)pyridin-2-yl)benzyl)-1-(oxetan-2-ylmethyl)-1H-benzo[d]imidazole-6-carboxylic acid], 330 pM.
